Reference: patent US10968462B2, “Plants having increased tolerance to herbicides” (BASF AGRO B.V., priority 2013, dated 2021)

Test system: transgenic T2 soybean plants
Experiment: Soybean greenhouse spray test, T2 plants at V2-V3 stage, injury 0-9 point scale 1 or 2 weeks after treatment (Tables 7C-7E)
Assay type: in vivo, Glycine max
Details: 2 week after treatment
Experimental: Soybean cv Jake was transformed as previously described by Siminszky et al., Phytochem Rev. 5:445-458 (2006). After regeneration, transformants were transplanted to soil in small pots, placed in growth chambers (16 hr day/8 hr night; 25° C. day/23° C. night; 65% relative humidity; 130-150 microE m-2 s-1) and subsequently tested for the presence of the T-DNA via Taqman analysis. After a few weeks, healthy, transgenic positive, single copy events were transplanted to larger pots and allowed to grow in the growth chamber. An optimal shoot for cutting was about 3-4 inches tall, with at least two nodes present. Each cutting was taken from the original transformant (mother plant) and dipped into rooting hormone powder (indole-3-butyric acid, IBA). The cutting was then placed in oasis wedges inside a bio-dome. The mother plant was taken to maturity in the greenhouse and harvested for seed. Wild type cuttings were also taken simultaneously to serve as negative controls. The cuttings were kept in the bio-dome for 5-7 days and then transplanted to 3 inch pots and then acclimated in the growth chamber for two more days. […] Other herbicides, such as AHAS (ALS—Acetolactate Synthase) inhibiting herbicides were also tested in a similar fashion for confirming cross resistance to other modes of action: Tritosulfuron, Florasulam, Metsulfuron, Rimsulfuron. Herbicide injury evaluations were taken at 2, 7, 14 and 21 days after treatment.
• 0 No Injury • 1 Minimal injury, only a few patches of leaf injury or chlorosis. • 2 Minimal injury with slightly stronger chlorosis. Overall growth points remain undamaged. • 3 Slightly stronger injury on secondary leaf tissue, but primary leaf and growth points are still undamaged. • 4 Overall plant morphology is slightly different, some chlorosis and necrosis in secondary growth points and leaf tissue. Stems are intact. Regrowth is highly probable within 1 week. • 5 Overall plant morphology is clearly different, some chlorosis and necrosis on a few leaves and growth points, but primary growth point is intact. Stem tissue is still green. Regrowth is highly probably within 1 week. • 6 Strong injury can be seen on the new leaflet growth. Plant has a high probability to survive only through regrowth at different growth points. Most of the leaves are chlorotic/necrotic but stem tissue is still green. May have regrowth but with noticeable injured appearance. • 7 Most of the active growth points are necrotic. There may be a single growth point that could survive and may be partially chlorotic or green and partially necrotic. Two leaves may still be chlorotic with some green; the rest of the plant including stem is necrotic. • 8 Plant will likely die, and all growth points are necrotic. One leaf may still be chlorotic with some green. The remainder of the plant is necrotic. • 9 Plant is dead. • * Not tested

Question: What does the source list for COc1nc(NC(=O)NS(=O)(=O)c2ccccc2C(F)(F)F)nc(C(F)(F)F)n1 [Tritosulfuron]?
Answer: injury on a 0-9 point scale (Bradi_1g07930.1 (Event 1), 4.375 g ai/ha): 1.5; injury on a 0-9 point scale (Bradi_1g07930.1 (Event 1), 8.75 g ai/ha): 0.5; injury on a 0-9 point scale (Bradi_1g07930.1 (Event 1), 17.5 g ai/ha): 1.7; injury on a 0-9 point scale (Bradi_1g07930.1 (Event 1), 35 g ai/ha): 2.3; injury on a 0-9 point scale (Bradi_1g07930.1 (Event 1), 70 g ai/ha): 1.5; injury on a 0-9 point scale (Bradi_1g07930.1 (Event 1), 140 g ai/ha): 0.3; injury on a 0-9 point scale (R128A_F420V (Event 1), 4.375 g ai/ha): 5.3; injury on a 0-9 point scale (R128A_F420V (Event 1), 8.75 g ai/ha): 6.0; injury on a 0-9 point scale (R128A_F420V (Event 1), 17.5 g ai/ha): 7.0; injury on a 0-9 point scale (R128A_F420V (Event 1), 35 g ai/ha): 7.0; injury on a 0-9 point scale (R128A_F420V (Event 1), 70 g ai/ha): 7.0; injury on a 0-9 point scale (R128A_F420V (Event 1), 140 g ai/ha): 6.5; injury on a 0-9 point scale (R128A_F420V (Event 2), 4.375 g ai/ha): 6.0; injury on a 0-9 point scale (R128A_F420V (Event 2), 8.75 g ai/ha): 6.5; injury on a 0-9 point scale (R128A_F420V (Event 2), 17.5 g ai/ha): 7.0; injury on a 0-9 point scale (R128A_F420V (Event 2), 35 g ai/ha): 7.0; injury on a 0-9 point scale (R128A_F420V (Event 2), 70 g ai/ha): 7.0; injury on a 0-9 point scale (R128A_F420V (Event 2), 140 g ai/ha): 8.0; injury on a 0-9 point scale (R128A_F420V + Bradi_1g07930.1 (Event 1), 4.375 g ai/ha): 0.3; injury on a 0-9 point scale (R128A_F420V + Bradi_1g07930.1 (Event 1), 8.75 g ai/ha): 0.3; injury on a 0-9 point scale (R128A_F420V + Bradi_1g07930.1 (Event 1), 17.5 g ai/ha): 1.5; injury on a 0-9 point scale (R128A_F420V + Bradi_1g07930.1 (Event 1), 35 g ai/ha): 2.0; injury on a 0-9 point scale (R128A_F420V + Bradi_1g07930.1 (Event 1), 70 g ai/ha): 2.7; injury on a 0-9 point scale (R128A_F420V + Bradi_1g07930.1 (Event 1), 140 g ai/ha): 1.3; injury on a 0-9 point scale (R128A_F420V + Bradi_1g07930.1 (Event 2), 4.375 g ai/ha): 1.0; injury on a 0-9 point scale (R128A_F420V + Bradi_1g07930.1 (Event 2), 8.75 g ai/ha): 2.3; injury on a 0-9 point scale (R128A_F420V + Bradi_1g07930.1 (Event 2), 17.5 g ai/ha): 1.5; injury on a 0-9 point scale (R128A_F420V + Bradi_1g07930.1 (Event 2), 35 g ai/ha): 1.0; injury on a 0-9 point scale (R128A_F420V + Bradi_1g07930.1 (Event 2), 70 g ai/ha): 3.0; injury on a 0-9 point scale (R128A_F420V + Bradi_1g07930.1 (Event 2), 140 g ai/ha): 3.0; injury on a 0-9 point scale (wild type, 4.375 g ai/ha): 8.0; injury on a 0-9 point scale (wild type, 8.75 g ai/ha): 8.0; injury on a 0-9 point scale (wild type, 17.5 g ai/ha): 8.0; injury on a 0-9 point scale (wild type, 35 g ai/ha): 8.3; injury on a 0-9 point scale (wild type, 70 g ai/ha): 8.3; injury on a 0-9 point scale (wild type, 140 g ai/ha): 8.3

Question: What does the source list for COc1ncc(F)c2nc(S(=O)(=O)Nc3c(F)cccc3F)nn12 [Flurasulam]?
Answer: injury on a 0-9 point scale (Bradi_1g07930.1 (Event 1), 0.156 g ai/ha): 0.3; injury on a 0-9 point scale (Bradi_1g07930.1 (Event 1), 0.3125 g ai/ha): 0.5; injury on a 0-9 point scale (Bradi_1g07930.1 (Event 1), 0.625 g ai/ha): 2.5; injury on a 0-9 point scale (Bradi_1g07930.1 (Event 1), Flurasulam 1.25 g ai/ha): 3.0; injury on a 0-9 point scale (Bradi_1g07930.1 (Event 1), Flurasulam 2.5 g ai/ha): 1.7; injury on a 0-9 point scale (Bradi_1g07930.1 (Event 1), Flurasulam 5 g ai/ha): 3.3; injury on a 0-9 point scale (R128A_F420V (Event 1), 0.156 g ai/ha): 0.0; injury on a 0-9 point scale (R128A_F420V (Event 1), 0.3125 g ai/ha): 3.3; injury on a 0-9 point scale (R128A_F420V (Event 1), 0.625 g ai/ha): 3.5; injury on a 0-9 point scale (R128A_F420V (Event 1), Flurasulam 1.25 g ai/ha): 4.5; injury on a 0-9 point scale (R128A_F420V (Event 1), Flurasulam 2.5 g ai/ha): 6.8; injury on a 0-9 point scale (R128A_F420V (Event 1), Flurasulam 5 g ai/ha): 6.5; injury on a 0-9 point scale (R128A_F420V (Event 2), 0.156 g ai/ha): 1.0; injury on a 0-9 point scale (R128A_F420V (Event 2), 0.3125 g ai/ha): 1.0; injury on a 0-9 point scale (R128A_F420V (Event 2), 0.625 g ai/ha): 3.5; injury on a 0-9 point scale (R128A_F420V (Event 2), Flurasulam 1.25 g ai/ha): 5.0; injury on a 0-9 point scale (R128A_F420V (Event 2), Flurasulam 2.5 g ai/ha): 6.0; injury on a 0-9 point scale (R128A_F420V (Event 2), Flurasulam 5 g ai/ha): 6.0; injury on a 0-9 point scale (R128A_F420V + Bradi_1g07930.1 (Event 1), 0.156 g ai/ha): 1.5; injury on a 0-9 point scale (R128A_F420V + Bradi_1g07930.1 (Event 1), 0.3125 g ai/ha): 2.3; injury on a 0-9 point scale (R128A_F420V + Bradi_1g07930.1 (Event 1), 0.625 g ai/ha): 3.0; injury on a 0-9 point scale (R128A_F420V + Bradi_1g07930.1 (Event 1), Flurasulam 1.25 g ai/ha): 3.5; injury on a 0-9 point scale (R128A_F420V + Bradi_1g07930.1 (Event 1), Flurasulam 2.5 g ai/ha): 3.3; injury on a 0-9 point scale (R128A_F420V + Bradi_1g07930.1 (Event 1), Flurasulam 5 g ai/ha): 2.5; injury on a 0-9 point scale (R128A_F420V + Bradi_1g07930.1 (Event 2), 0.156 g ai/ha): 3.3; injury on a 0-9 point scale (R128A_F420V + Bradi_1g07930.1 (Event 2), 0.3125 g ai/ha): 3.0; injury on a 0-9 point scale (R128A_F420V + Bradi_1g07930.1 (Event 2), 0.625 g ai/ha): 3.0; injury on a 0-9 point scale (R128A_F420V + Bradi_1g07930.1 (Event 2), Flurasulam 1.25 g ai/ha): 3.5; injury on a 0-9 point scale (R128A_F420V + Bradi_1g07930.1 (Event 2), Flurasulam 2.5 g ai/ha): 3.0; injury on a 0-9 point scale (R128A_F420V + Bradi_1g07930.1 (Event 2), Flurasulam 5 g ai/ha): 3.5; injury on a 0-9 point scale (wild type, 0.156 g ai/ha): 0.3; injury on a 0-9 point scale (wild type, 0.3125 g ai/ha): 3.0; injury on a 0-9 point scale (wild type, 0.625 g ai/ha): 4.0; injury on a 0-9 point scale (wild type, Flurasulam 1.25 g ai/ha): 5.5; injury on a 0-9 point scale (wild type, Flurasulam 2.5 g ai/ha): 6.0; injury on a 0-9 point scale (wild type, Flurasulam 5 g ai/ha): 7.5
